Data as given in PMC7666214, “Kinetic insights into the peroxygenase activity of cellulose-active lytic polysaccharide monooxygenases (LPMOs)” (Nature Communications, 2020).

Target: T1, HRP (Armoracia rusticana, UniProt P00433)
T1 construct: gene PRXC1A; commercial horseradish peroxidase, used as purchased
T1 sequence (P00433 31-338): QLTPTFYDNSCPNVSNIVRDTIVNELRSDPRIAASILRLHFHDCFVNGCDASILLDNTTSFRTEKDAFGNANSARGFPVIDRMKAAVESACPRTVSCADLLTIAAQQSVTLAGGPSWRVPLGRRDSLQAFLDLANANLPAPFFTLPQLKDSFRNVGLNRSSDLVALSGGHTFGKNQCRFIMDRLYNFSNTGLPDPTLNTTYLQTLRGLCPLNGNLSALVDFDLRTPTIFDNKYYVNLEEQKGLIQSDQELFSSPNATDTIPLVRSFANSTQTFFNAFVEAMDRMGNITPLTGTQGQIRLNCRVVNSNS
Assay: absorbance at […] nm (resorufin)
Type: biochemical
Conditions: H2O2 co-substrate, Bis-Tris 50 mM pH 6.1, 25 °C; ping-pong

CC(=O)N1c2ccc(O)cc2Oc2cc(O)ccc21 [AR, N-acetyl-3,7-dihydroxyphenoxazine]
absorbance at 570 nm (resorufin): The kinetics of HRP with the AR substrate was consistent with the ping-pong mechanism
